Reference: PMC10512030, “Prolidase-proline oxidase axis is engaged in apoptosis induction by birch buds flavonol santin in endometrial adenocarcinoma cell line” (Frontiers in Molecular Biosciences, 2023)
Read-outs that look alike come from different tables or passages of the source.

What was measured:
[1] = system: endometrial adenocarcinoma Ishikawa cells; test: Cell viability neutral red uptake assay, Ishikawa; format: cell-based, human; conditions: read-out: IC50 values ± SD in neutral red uptake assay
[2] = system: cervical adenocarcinoma HeLa cells; conditions: cited from earlier work; for IC50: HeLa, ref Souza et al., 2017, read-out: IC50 determined by MTT assay
[3] = system: normal fibroblasts (dermal fibroblasts CCD25Sk); test: Cell viability MTT assay, fibroblasts; format: cell-based, human; conditions: for IC50: Fibroblasts, read-out: IC50 values ± SD in MTT assay
[4] = system: cervical adenocarcinoma HeLa cells; test: Cell viability MTT assay, HeLa; format: cell-based, human
[5] = system: cervical adenocarcinoma HeLa cells; test: Cell viability neutral red uptake assay, HeLa; format: cell-based, human; conditions: read-out: IC50 values ± SD in neutral red uptake assay
[6] = system: breast epithelial cells MCF 10A; test: Cell viability MTT assay, MCF 10A; format: cell-based, human; conditions: 48 h
[7] = system: endometrial adenocarcinoma Ishikawa cells; test: Cell viability MTT assay, Ishikawa; format: cell-based, human; conditions: read-out: IC50 values ± SD in MTT assay
[8] = system: normal fibroblasts (dermal fibroblasts CCD25Sk); test: Cell viability neutral red uptake assay, fibroblasts; format: cell-based, human; conditions: read-out: IC50 values ± SD in neutral red uptake assay
[9] = Homo sapiens, HeLa, 24 h, HeLa, 24 h, read-out: IC50 values ± SD in MTT assay
[10] = Homo sapiens, HeLa, 48 h, HeLa, 48 h, read-out: IC50 values ± SD in MTT assay
[11] = HeLa, 24 h, read-out: IC50 values ± SD in MTT assay
[12] = HeLa, 48 h, read-out: IC50 values ± SD in MTT assay

Structure (SMILES)	IC50 ([1]; Homo sapiens, 24 h) [µM]	IC50 ([1]; Homo sapiens, 48 h) [µM]	IC50 ([3]; Homo sapiens, Fibroblast, 24 h) [µM]	IC50 ([3]; Homo sapiens, Fibroblast, 48 h) [µM]	IC50 [4, 9] [µM]	IC50 [4, 10] [µM]	IC50 ([5]; Homo sapiens, 24 h) [µM]	IC50 ([5]; Homo sapiens, 48 h) [µM]	IC50 ([7]; Homo sapiens, 24 h) [µM]	IC50 ([7]; Homo sapiens, 48 h) [µM]	IC50 ([8]; Homo sapiens, Fibroblast, 24 h) [µM]	IC50 ([8]; Homo sapiens, Fibroblast, 48 h) [µM]	IC50 ([7]; 24 h) [µM]	other results
O=c1cc(-c2ccc(O)cc2)oc2cc(O)cc(O)c12 [apigenin, reference compound]	> 50	38 ± 2.1	> 50	> 50	~30	~17.9	~27	~14.2	> 50	33.1 ± 2.2	> 50	48.6 ± 3.1		IC50 ([2]; 24 h): ~38 µM; IC50 ([2]; 48 h): ~10 µM; IC50 ([6]; Homo sapiens): 14.5 ± 1.8 µM
N.N.[Cl][Pt][Cl] [cisplatin, reference compound]													> 50	IC50 ([1]; 24 h): 28.1 ± 2 µM; IC50 ([1]; 48 h): 11.7 ± 2.2 µM; IC50 ([3]; 24 h): > 50 µM; IC50 ([3]; 48 h): 40.5 ± 4.3 µM; IC50 [4, 11]: 30 ± 2.7 µM; IC50 [4, 12]: 9.4 ± 1.3 µM; IC50 ([5]; 24 h): 20 ± 2.7 µM; IC50 ([5]; 48 h): 9.7 ± 2.3 µM; IC50 [6]: 17.8 ± 2.3 µM; IC50 ([7]; 24 h, listed as Cisplatin): > 50 µM; IC50 ([7]; 48 h): 12 ± 2 µM; IC50 ([8]; 24 h): > 50 µM; IC50 ([8]; 48 h): 43.1 ± 3.5 µM
COc1cc(O)c2c(=O)c(OC)c(-c3ccc(O)cc3)oc2c1 [kumatakenin]	> 50	> 50	47 ± 5.6	42.9 ± 4.3	> 50	> 50	> 50	> 50	30.5 ± 2	24.2 ± 1.8	35.7 ± 2.5	15.3 ± 2.3		effect on viability of fibroblasts ([3]; fibroblasts, MTT and neutral red uptake assays, 24 and 48 h): significantly decreased viability
COc1ccc(-c2cc(=O)c3c(O)cc(OC)cc3o2)cc1 [apigenin 7,4′-O-dimethyl ether]													26.2 ± 1.9	IC50 ([1]; 24 h): > 50 µM; IC50 ([1]; 48 h): > 50 µM; effect on viability of fibroblasts [3]: significantly decreased viability; IC50 ([3]; 24 h): 18 ± 3.9 µM; IC50 ([3]; 48 h): 10.9 ± 4.6 µM; IC50 [4, 11]: > 50 µM; IC50 [4, 12]: > 50 µM; IC50 ([5]; 24 h): > 50 µM; IC50 ([5]; 48 h): > 50 µM; IC50 ([7]; 48 h): 20.9 ± 1.4 µM; IC50 ([8]; 24 h): 27.6 ± 2.8 µM; IC50 ([8]; 48 h): 7.6 ± 1.1 µM
O=c1cc(-c2ccc(O)c(O)c2)oc2cc(O)cc(O)c12 [luteolin, reference compound]	> 50	31.6 ± 2.9	> 50	> 50	42.8 ± 3.6		31.5 ± 2.5	~28	> 50	25.9 ± 2.5	> 50	> 50		reduction in HeLa cell viability ([2]; 20 μM luteolin, MTT assay, 48 h time point, ref Raina et al., 2021): about 50%; IC50 ([6]; Homo sapiens): 8.4 ± 1.5 µM
COc1ccc(-c2oc3cc(O)cc(O)c3c(=O)c2OC)cc1 [ermanin]	> 50	46.7 ± 3.2	> 50	> 50	> 50	31.8 ± 2.4	39 ± 2.9	33.2 ± 1.9	> 50	> 50	> 50	> 50		
O=c1c(O)c(-c2ccc(O)c(O)c2)oc2cc(O)cc(O)c12 [quercetin]	> 50	42.9 ± 3.8	> 50	> 50	> 50	> 50	39.1 ± 3.2	36.9 ± 2	> 50	45.4 ± 4.1	> 50	> 50		
COc1cc(O)c2c(c1)O[C@H](c1ccc(O)cc1)CC2=O [sakuranetin]	> 50	> 50	> 50	> 50	> 50	> 50	> 50	> 50	> 50	> 50	> 50	> 50		IC50 ([4]; Homo sapiens, HeLa, cancer cells (HeLa and Ishikawa), MTT and neutral red uptake assays, 24 and 48 h, read-out: IC50, viability of cancer cells): > 50 µM
COc1cc2oc(-c3ccc(O)cc3)cc(=O)c2c(O)c1OC [cirsimaritin]	34.2 ± 2.7	26.1 ± 2.1	> 50	> 50	36.6 ± 2.2	16 ± 1.9	17.5 ± 2.4	13.9 ± 1.4	> 50	19.6 ± 2.6	> 50	> 50	> 50	
O=c1c(O)c(-c2ccc(O)cc2)oc2cc(O)cc(O)c12 [kaempferol]	> 50	> 50	> 50	> 50	> 50	> 50	> 50	38.3 ± 2.5	> 50	> 50	> 50	> 50		
COc1ccc(C2CC(=O)c3c(O)cc(OC)cc3O2)cc1 (centres unmarked) [naringenin 7,4′-O-dimethyl ether]													> 50	IC50 ([1]; 24 h): > 50 µM; IC50 ([1]; 48 h): > 50 µM; IC50 ([3]; 24 h): > 50 µM; IC50 ([3]; 48 h): > 50 µM; IC50 [4, 11]: > 50 µM; IC50 [4, 12]: > 50 µM; IC50 ([4]; cancer cells (HeLa and Ishikawa), MTT and neutral red uptake assays, 24 and 48 h, read-out: IC50, viability of cancer cells): > 50 µM; IC50 ([5]; 24 h): > 50 µM; IC50 ([5]; 48 h): > 50 µM; IC50 ([7]; 48 h): > 50 µM; IC50 ([8]; 24 h): > 50 µM; IC50 ([8]; 48 h): > 50 µM
